Experimental data from EP4678638A1, “NEW E3 UBIQUITIN LIGASE LIGAND, PROTEIN DEGRADATION AGENT AND USE THEREOF” (priority 2023, dated 2024).

Assays:
WEE1 = biological target: T1, WEE1 (Homo sapiens, UniProt P30291+Q96SW2); assay: Western blot degradation of WEE1 (hPBMC); format: cell-based; conditions: Table D16
T1 construct: evaluate the effects of the compounds of the present disclosure on the expression of target proteins in cells; endogenous in cells; host or cells: hPBMC
Procedure: (§1) Conventional Western blot assay was performed to evaluate the effects of the compounds of the present disclosure on the expression of target proteins in cells.
(§2) (1) Cell Seeding and Protein Harvesting: The selected cells were processed according to the cell seeding procedure and protein harvesting procedure in Table III-2. Table III-2 Cell Seeding and Protein Harvesting Procedures
(§3) (2) To the collected supernatant, 5X SDS sample loading buffer was added, followed by denaturation at 95°C for 5 minutes. The denatured samples were then separated by SDS-PAGE electrophoresis on a polyacrylamide gel. Proteins were transferred to a nitrocellulose membrane (0.45 µm NC membrane), blocked with blocking buffer at room temperature for 1 hour, and subjected to antibody incubation and development procedures according to the antibody manufacturer's instructions (Cell Signaling Technology).
(§4) Half-Maximal Degradation Concentration value (the drug concentration required for degrading proteins by 50%, abbreviated as DC50) reads method: comparing the grayscale values of Western blot bands from drug-treated samples with those from blank DMSO-treated controls, and identifying the drug concentration range at which the grayscale value is half that of the DMSO-treated control bands.
(§5) DC50 values can be calculated using ImageJ software to measure grayscale values of Western blot bands from drug-treated samples. The concentration-response curve is fitted to estimate the drug concentration corresponding to half the grayscale value.
(§6) Target protein remaining (%) refers to the percentage of target protein remaining in hPBMC cells after treatment with protein degrader compounds.
(§7) Calculation method for target protein remaining (%): Use ImageJ software to measure grayscale values of Western blot bands from drug (protein degrader)-treated samples. The grayscale value of drug-treated bands is divided by that of internal control protein bands, and the resulting quotient is normalized to obtain the relative percentage of remaining target protein after protein degrader treatment.
(§8) Target protein degradation rate (%) = 100% - target protein remaining (%).

IKZF1 = biological target: T2, IKZF1 (Homo sapiens, UniProt Q13422+Q96SW2); assay: Western blot degradation of IKZF1 (hPBMC); format: cell-based; conditions: Table D16
T2 construct: evaluate the effects of the compounds of the present disclosure on the expression of target proteins in cells; endogenous in cells; host or cells: hPBMC
Procedure: as §1, §2, §3, §4, §5, §6, §7, §8

IKZF2 = biological target: T3, IKZF2 (Homo sapiens, UniProt Q96SW2+Q9UKS7); assay: Western blot degradation of IKZF2 (hPBMC); format: cell-based; conditions: Table D16
T3 construct: evaluate the effects of the compounds of the present disclosure on the expression of target proteins in cells; endogenous in cells; host or cells: hPBMC
Procedure: as §1, §2, §3, §4, §5, §6, §7, §8

IKZF3 = biological target: T4, IKZF3 (Homo sapiens, UniProt Q96SW2+Q9UKT9); assay: Western blot degradation of IKZF3 (hPBMC); format: cell-based; conditions: Table D16
T4 construct: evaluate the effects of the compounds of the present disclosure on the expression of target proteins in cells; endogenous in cells; host or cells: hPBMC
Procedure: as §1, §2, §3, §4, §5, §6, §7, §8

CK1a = biological target: T5, CK1a (Homo sapiens, UniProt P48729+Q96SW2); assay: Western blot degradation of CK1a (hPBMC); format: cell-based; conditions: Table D16
T5 construct: evaluate the effects of the compounds of the present disclosure on the expression of target proteins in cells; endogenous in cells; host or cells: hPBMC
Procedure: as §1, §2, §3, §4, §5, §6, §7, §8

GSPT1 = biological target: T6, GSPT1 (Homo sapiens, UniProt P15170+Q96SW2); assay: Western blot degradation of GSPT1 (hPBMC); format: cell-based; conditions: Table D16
T6 construct: evaluate the effects of the compounds of the present disclosure on the expression of target proteins in cells; endogenous in cells; host or cells: hPBMC
Procedure: as §1, §2, §3, §4, §5, §6, §7, §8

H2228 = assay: CCK-8 proliferation, NCI-H2228 (H2228); format: cell-based; conditions: Homo sapiens, NCI-H2228; Table B6, compounds designed based on the ALK inhibitors; H2228 cells; read-out: Inhibitory activity (IC50, nM) on tumor cell proliferation, H2228
Summary of the method: (§9)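 Cells seeded, then after 24 h treated with 10 concentrations (top 10 µM, 5-fold serial dilution) for a line-specific time at 37°C, 5% CO2. Viability read by CCK-8; IC50 fitted from growth-inhibition curves.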

MCF7 = assay: CCK-8 proliferation, MCF7 (MCF-7); format: cell-based; conditions: Homo sapiens, MCF7; Table B6, compounds designed based on the ALK inhibitors; MCF-7 cells; read-out: Inhibitory activity (IC50, nM) on tumor cell proliferation, MCF-7
Summary of the method: as §9

SR = assay: CCK-8 proliferation, SR; format: cell-based, Human; conditions: Homo sapiens; Table B6, compounds designed based on the ALK inhibitors; SR cells; read-out: Inhibitory activity (IC50, nM) on tumor cell proliferation, SR
Summary of the method: as §9

MM.1S = assay: CCK-8 proliferation, MM.1S; format: cell-based; conditions: Homo sapiens, MM1.S; Table B6, compounds designed based on the ALK inhibitors; MM.1S cells; read-out: Inhibitory activity (IC50, nM) on tumor cell proliferation, MM.1S
Summary of the method: as §9

ALK = biological target: T7, ALK (Homo sapiens, UniProt Q96SW2+Q9HC35+Q9UM73); assay: Western blot degradation of ALK (H2228 Cell); format: cell-based; conditions: Table D5
T7 construct: evaluate the effects of the compounds of the present disclosure on the expression of target proteins in cells; endogenous in cells; host or cells: H2228
Summary of the method: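 Quantification by ImageJ densitometry of Western blot bands: DC50 is the fitted concentration halving band intensity relative to DMSO. Percent remaining uses internal-control normalization, and degradation rate is its complement.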

H1975 = assay: CCK-8 proliferation, NCI-H1975 (H1975); format: cell-based, Human; conditions: Homo sapiens, NCI-H1975; Table B6, compounds designed based on the ALK inhibitors; H1975 cells; read-out: Inhibitory activity (IC50, nM) on tumor cell proliferation, H1975
Summary of the method: as §9

[1] = biological target: T8, human Cereblon WT GST-tagged protein (Homo sapiens, UniProt Q96SW2); assay: CRBN binding, HTRF (CEREBLON BINDING kit); conditions: Table II-2, CRBN binding screening, HTRF; for inhibition at 0.5 µM: read-out: Inhibition rate (%) at 0.5µM; for inhibition at 2 µM: read-out: Inhibition rate (%) at 2 µM
T8 construct: purchased CISBIO 64BDCRBNPEH
Summary of the method: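 After 3 h at room temperature, emission at 665 and 620 nm was measured in a homogeneous time-resolved fluorescence format. Compounds competed with a Thalidomide-Re probe for GST-tagged wild-type human CRBN, which was labelled with a Eu anti-GST antibody.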

T8 sequence (Q96SW2 whole entry): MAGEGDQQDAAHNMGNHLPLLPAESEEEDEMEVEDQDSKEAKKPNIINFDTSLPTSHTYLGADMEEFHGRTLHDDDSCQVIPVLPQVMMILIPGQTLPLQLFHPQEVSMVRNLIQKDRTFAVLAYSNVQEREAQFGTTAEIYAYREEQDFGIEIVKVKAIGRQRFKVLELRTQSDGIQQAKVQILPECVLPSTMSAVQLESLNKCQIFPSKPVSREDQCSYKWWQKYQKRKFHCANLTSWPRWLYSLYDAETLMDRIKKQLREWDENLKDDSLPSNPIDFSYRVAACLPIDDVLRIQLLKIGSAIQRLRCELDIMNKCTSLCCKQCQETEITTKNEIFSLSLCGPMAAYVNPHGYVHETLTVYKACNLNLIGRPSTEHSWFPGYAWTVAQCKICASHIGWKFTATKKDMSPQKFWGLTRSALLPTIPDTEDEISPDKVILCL
T4 sequence (Q9UKT9 whole entry): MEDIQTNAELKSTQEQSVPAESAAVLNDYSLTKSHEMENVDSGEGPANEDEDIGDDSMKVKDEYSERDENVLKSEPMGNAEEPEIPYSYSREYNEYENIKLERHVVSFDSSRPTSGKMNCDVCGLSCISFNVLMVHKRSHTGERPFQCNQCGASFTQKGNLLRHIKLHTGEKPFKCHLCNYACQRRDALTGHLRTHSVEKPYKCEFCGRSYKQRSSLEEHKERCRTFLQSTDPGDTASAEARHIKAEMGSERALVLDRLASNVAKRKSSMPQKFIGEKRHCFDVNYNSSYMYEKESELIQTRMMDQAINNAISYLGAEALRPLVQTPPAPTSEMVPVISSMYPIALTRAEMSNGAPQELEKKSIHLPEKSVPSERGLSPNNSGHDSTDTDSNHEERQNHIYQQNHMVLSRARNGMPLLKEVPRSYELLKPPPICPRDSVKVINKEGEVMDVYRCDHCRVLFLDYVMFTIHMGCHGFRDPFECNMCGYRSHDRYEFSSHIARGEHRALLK
T4 sequence (Q96SW2 whole entry): as the sequence (Q96SW2 whole entry) above
T4 sequence (Q16531 whole entry partner): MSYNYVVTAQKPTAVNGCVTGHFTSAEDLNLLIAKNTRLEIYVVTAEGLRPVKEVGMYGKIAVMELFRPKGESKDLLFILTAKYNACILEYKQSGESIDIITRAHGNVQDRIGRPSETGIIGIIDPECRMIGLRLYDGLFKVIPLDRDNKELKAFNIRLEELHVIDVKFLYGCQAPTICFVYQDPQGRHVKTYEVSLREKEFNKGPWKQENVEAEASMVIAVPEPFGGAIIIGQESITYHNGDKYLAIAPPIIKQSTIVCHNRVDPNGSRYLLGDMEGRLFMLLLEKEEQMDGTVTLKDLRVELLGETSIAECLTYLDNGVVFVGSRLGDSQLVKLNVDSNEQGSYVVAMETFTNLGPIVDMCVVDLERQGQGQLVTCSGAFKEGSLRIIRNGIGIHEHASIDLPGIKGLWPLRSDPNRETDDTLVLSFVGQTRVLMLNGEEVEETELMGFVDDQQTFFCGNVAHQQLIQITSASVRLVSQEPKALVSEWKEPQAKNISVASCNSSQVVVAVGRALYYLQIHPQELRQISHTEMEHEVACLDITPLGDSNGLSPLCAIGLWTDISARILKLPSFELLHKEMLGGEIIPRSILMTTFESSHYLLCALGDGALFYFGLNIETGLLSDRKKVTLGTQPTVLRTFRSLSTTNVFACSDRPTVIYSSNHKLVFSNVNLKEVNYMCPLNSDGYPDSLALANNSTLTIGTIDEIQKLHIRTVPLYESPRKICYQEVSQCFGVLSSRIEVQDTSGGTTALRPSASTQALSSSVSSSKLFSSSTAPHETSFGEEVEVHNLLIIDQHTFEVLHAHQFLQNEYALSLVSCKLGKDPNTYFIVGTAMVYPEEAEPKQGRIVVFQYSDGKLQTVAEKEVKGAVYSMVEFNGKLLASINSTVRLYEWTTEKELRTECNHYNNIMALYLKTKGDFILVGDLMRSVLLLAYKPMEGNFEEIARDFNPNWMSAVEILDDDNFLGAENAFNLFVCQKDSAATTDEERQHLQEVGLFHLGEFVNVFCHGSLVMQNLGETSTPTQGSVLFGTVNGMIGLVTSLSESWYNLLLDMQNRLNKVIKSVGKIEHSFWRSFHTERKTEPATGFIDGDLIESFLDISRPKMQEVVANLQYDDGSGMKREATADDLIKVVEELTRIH
T7 sequence (Q9HC35+Q9UM73 fused): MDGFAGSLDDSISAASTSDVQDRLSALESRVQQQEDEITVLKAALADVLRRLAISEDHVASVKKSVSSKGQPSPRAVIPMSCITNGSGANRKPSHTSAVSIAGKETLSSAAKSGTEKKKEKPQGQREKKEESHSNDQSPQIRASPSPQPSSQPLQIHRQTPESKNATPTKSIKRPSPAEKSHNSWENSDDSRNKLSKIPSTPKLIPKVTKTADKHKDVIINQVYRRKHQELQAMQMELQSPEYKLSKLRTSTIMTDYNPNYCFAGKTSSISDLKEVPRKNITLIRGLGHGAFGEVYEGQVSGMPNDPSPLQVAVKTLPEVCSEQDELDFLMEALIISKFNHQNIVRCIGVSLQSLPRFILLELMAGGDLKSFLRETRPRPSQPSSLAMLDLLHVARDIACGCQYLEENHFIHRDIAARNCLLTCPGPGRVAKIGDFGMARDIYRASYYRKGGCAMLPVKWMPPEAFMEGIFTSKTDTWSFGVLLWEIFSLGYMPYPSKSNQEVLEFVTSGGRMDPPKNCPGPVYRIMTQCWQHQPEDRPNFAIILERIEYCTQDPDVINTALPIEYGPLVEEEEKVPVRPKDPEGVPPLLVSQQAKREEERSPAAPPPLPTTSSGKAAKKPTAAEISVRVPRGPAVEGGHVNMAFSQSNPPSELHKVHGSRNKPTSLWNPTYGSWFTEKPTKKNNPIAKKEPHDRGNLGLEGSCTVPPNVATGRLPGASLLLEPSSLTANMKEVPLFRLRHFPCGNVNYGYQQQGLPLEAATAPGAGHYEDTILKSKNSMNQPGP
T7 sequence (Q96SW2 whole entry): as the sequence (Q96SW2 whole entry) above
T7 sequence (Q16531 whole entry partner): as the sequence (Q16531 whole entry partner) above
T1 sequence (P30291 whole entry): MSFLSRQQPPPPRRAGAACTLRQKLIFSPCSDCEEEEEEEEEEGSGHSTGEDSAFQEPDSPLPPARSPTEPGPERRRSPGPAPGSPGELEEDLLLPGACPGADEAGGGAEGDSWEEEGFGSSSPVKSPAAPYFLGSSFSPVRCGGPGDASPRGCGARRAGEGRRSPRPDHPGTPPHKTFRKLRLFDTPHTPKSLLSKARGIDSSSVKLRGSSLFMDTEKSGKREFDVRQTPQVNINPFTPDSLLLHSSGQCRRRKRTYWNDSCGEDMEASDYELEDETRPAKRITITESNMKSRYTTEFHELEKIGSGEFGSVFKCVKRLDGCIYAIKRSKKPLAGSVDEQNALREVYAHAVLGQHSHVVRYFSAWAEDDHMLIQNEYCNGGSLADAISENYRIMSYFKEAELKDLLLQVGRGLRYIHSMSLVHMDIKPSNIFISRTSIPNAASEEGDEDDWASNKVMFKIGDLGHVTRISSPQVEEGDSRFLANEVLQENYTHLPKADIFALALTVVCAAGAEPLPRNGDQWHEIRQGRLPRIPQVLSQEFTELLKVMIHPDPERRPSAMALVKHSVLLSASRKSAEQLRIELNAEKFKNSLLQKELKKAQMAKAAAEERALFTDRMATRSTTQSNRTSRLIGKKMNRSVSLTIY
T1 sequence (Q96SW2 whole entry): as the sequence (Q96SW2 whole entry) above
T1 sequence (Q16531 whole entry partner): as the sequence (Q16531 whole entry partner) above
T2 sequence (Q13422 whole entry): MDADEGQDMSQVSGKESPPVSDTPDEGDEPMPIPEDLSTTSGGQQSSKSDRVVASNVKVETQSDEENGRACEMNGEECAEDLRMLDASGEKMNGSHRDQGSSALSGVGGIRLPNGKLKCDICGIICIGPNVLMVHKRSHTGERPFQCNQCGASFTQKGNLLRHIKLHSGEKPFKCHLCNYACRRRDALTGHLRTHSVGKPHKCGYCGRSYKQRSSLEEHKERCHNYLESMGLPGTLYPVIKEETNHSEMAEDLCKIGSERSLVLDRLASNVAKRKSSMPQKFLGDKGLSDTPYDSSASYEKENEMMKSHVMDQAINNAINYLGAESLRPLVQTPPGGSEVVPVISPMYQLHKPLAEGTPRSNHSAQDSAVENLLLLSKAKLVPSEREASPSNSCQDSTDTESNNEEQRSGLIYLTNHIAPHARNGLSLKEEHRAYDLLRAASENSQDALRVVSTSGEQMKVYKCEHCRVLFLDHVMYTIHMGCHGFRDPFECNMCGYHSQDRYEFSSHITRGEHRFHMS
T2 sequence (Q96SW2 whole entry): as the sequence (Q96SW2 whole entry) above
T2 sequence (Q16531 whole entry partner): as the sequence (Q16531 whole entry partner) above
T5 sequence (P48729 whole entry): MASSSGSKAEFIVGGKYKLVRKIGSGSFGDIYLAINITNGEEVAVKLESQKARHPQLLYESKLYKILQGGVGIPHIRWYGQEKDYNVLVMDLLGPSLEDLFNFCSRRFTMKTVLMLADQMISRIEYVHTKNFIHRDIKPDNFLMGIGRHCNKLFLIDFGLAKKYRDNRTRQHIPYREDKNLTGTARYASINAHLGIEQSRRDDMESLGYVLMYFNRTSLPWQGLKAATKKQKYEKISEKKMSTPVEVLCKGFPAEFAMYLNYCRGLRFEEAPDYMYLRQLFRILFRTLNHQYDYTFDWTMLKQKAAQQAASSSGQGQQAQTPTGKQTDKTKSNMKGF
T5 sequence (Q96SW2 whole entry): as the sequence (Q96SW2 whole entry) above
T5 sequence (Q16531 whole entry partner): as the sequence (Q16531 whole entry partner) above

| IC50 (H2228) | IC50 (MCF7) | IC50 (MM.1S) | IC50 (H1975) | inhibition at 0.5 µM [1] | inhibition at 2 µM [1] | Structure (SMILES) | Degradation of substrate protein WEE1 (substrate protein remaining %) (WEE1) | Degradation of substrate protein IKZF1 (substrate protein remaining %) (IKZF1) | Degradation of substrate protein IKZF2 (substrate protein remaining %) (IKZF2) | Degradation of substrate protein IKZF3 (substrate protein remaining %) (IKZF3) | Degradation of substrate protein CKla (substrate protein remaining %) (CK1a) | Degradation of substrate protein GSPT1 (substrate protein remaining %) (GSPT1) | IC50 (SR) | Degradation of substrate protein ALK (substrate protein remaining %) (ALK) |
| --- | --- | --- | --- | --- | --- | --- | --- | --- | --- | --- | --- | --- | --- | --- |
|  |  |  |  |  |  | O=C1CCC(Nc2ncccc2CO)C(=O)N1 (stereo not drawn) [GT-07197, 3-((3-(Hydroxymethyl)pyridin-2-yl)amino)piperidine-2,6-dione] | B (B is defined as substrate protein remaining % > 80%) | B (B is defined as substrate protein remaining % > 80%) | B (B is defined as substrate protein remaining % > 80%) | B (B is defined as substrate protein remaining % > 80%) | A (A is defined as 0% ≤ substrate protein remaining % ≤ 80%) | A (A is defined as 0% ≤ substrate protein remaining % ≤ 80%) |  |  |
|  |  |  |  |  |  | CC(C)(C)[Si](C)(C)OCc1cc(NC2CCC(=O)NC2=O)ncc1F (stereo not drawn) [GT-07724, 3-((4-(((tertbutyldimethylsilyl)oxy)methyl)-5-fluoropyridin-2-yl)amino)piperidine-2,6-dione] | A (A is defined as 0% ≤ substrate protein remaining % ≤ 80%) | A (A is defined as 0% ≤ substrate protein remaining % ≤ 80%) | A (A is defined as 0% ≤ substrate protein remaining % ≤ 80%) | A (A is defined as 0% ≤ substrate protein remaining % ≤ 80%) | B (B is defined as substrate protein remaining % > 80%) | A (A is defined as 0% ≤ substrate protein remaining % ≤ 80%) |  |  |
|  |  |  |  |  |  | O=Cc1ccncc1NC1CCC(=O)NC1=O (stereo not drawn) [GT-07804, 3-((2,6-Dioxopiperidin-3-yl)amino)isonicotinaldehyde] | B (B is defined as substrate protein remaining % > 80%) | B (B is defined as substrate protein remaining % > 80%) | A (A is defined as 0% ≤ substrate protein remaining % ≤ 80%) | A (A is defined as 0% ≤ substrate protein remaining % ≤ 80%) | B (B is defined as substrate protein remaining % > 80%) | B (B is defined as substrate protein remaining % > 80%) |  |  |
| 50 to 100 nM | 100 to 500 nM | 500 to 1000 nM |  |  |  | Cc1cc(Nc2ncc(Cl)c(Nc3ccccc3S(=O)(=O)C(C)C)n2)c(OC(C)C)cc1C1CCN(Cc2cccc(N3CCC(=O)NC3=O)c2)CC1 [GT-07593, 1-(3-((4-(4-((5-chloro-4-((2-(isopropylsulfonyl)phenyl)amino)pyrimidin-2-yl)amino)-5-isopropoxy-2-methylphenyl)piperidin-1-yl)methyl)phenyl)dihydropyr imidine-2,4(1H,3H)-dione] |  |  |  |  |  |  | 10 to 50 nM | A (A is defined as 0% ≤ substrate protein remaining % ≤ 80%) |
| 10 to 50 nM | 100 to 500 nM | 500 to 1000 nM | 100 to 500 nM |  |  | COc1cc(N2CCC(N(C)Cc3ccnc(N4CCC(=O)NC4=O)c3)CC2)ccc1Nc1ncc(Cl)c(Nc2ccccc2P(C)(C)=O)n1 [GT-07694, 1-(4-(((1-(4-((5-chloro-4-((2-(dimethylphosphoryl)phenyl)amino)pyrimidin-2-yl)amino)-3-methoxyphenyl)piperidin-4-yl)(methyl)amino)methyl)pyridin-2-yl)dihydropyrimidine-2,4(1H,3H)-dione] |  |  |  |  |  |  | 1 to 10 nM | A (A is defined as 0% ≤ substrate protein remaining % ≤ 80%) |
|  |  | 100 to 500 nM |  | 40 to 53% | 53 to 60% | CCc1cc2c(cc1N1CCC(N3CCN(Cc4ccc(C5CCC(=O)NC5=O)c(F)c4)CC3)CC1)C(C)(C)c1[nH]c3cc(C#N)ccc3c1C2=O (stereo not drawn) [GT-03763, 8-(4-(4-(4-(2,6-dioxopiperidin-3-yl)-3-fluorobenzyl)piperazin-1-yl)piperidin-1-yl)-9-ethyl-6,6-dimethyl-11-oxo-6,11-dihydro-5H-benzo[b]carbazole-3-carbonitrile] |  |  |  |  |  |  | 1 to 10 nM | A (A is defined as 0% ≤ substrate protein remaining % ≤ 80%) |
| 100 to 500 nM |  | 500 to 1000 nM |  |  |  | CCc1cc2c(cc1N1CCN(Cc3ccc(C4CCC(=O)NC4=O)cc3)CC1)C(C)(C)c1[nH]c3cc(C#N)ccc3c1C2=O (stereo not drawn) [GT-07323, 8-(4-(4-(2,6-dioxopiperidin-3-yl)benzyl)piperazin-1-yl)-9-ethyl-6,6-dimethyl-11-oxo-6,11-dihydro-5H-benzo[b]carbazole-3-carbonitrile] |  |  |  |  |  |  | 1 to 10 nM | A (A is defined as 0% ≤ substrate protein remaining % ≤ 80%) |
|  |  | 500 to 1000 nM |  | 40 to 53% | 60 to 80% | CCc1cc2c(cc1N1CCC(N3CCN(Cc4ccc(C5CCC(=O)NC5=O)cc4)CC3)CC1)C(C)(C)c1[nH]c3cc(C#N)ccc3c1C2=O (stereo not drawn) [GT-03762, 8-(4-(4-(4-(2,6-dioxopiperidin-3-yl)benzyl)piperazin-1-yl)piperidin-1-yl)-9-ethyl-6,6-dimethyl-11-oxo-6,11-dihydro-5H-benzo[b]carbazole-3-carbonitrile] |  |  |  |  |  |  | 1 to 10 nM | A (A is defined as 0% ≤ substrate protein remaining % ≤ 80%) |
| 50 to 100 nM | 100 to 500 nM | 500 to 1000 nM |  |  |  | Cc1cc(Nc2ncc(Cl)c(Nc3ccccc3S(=O)(=O)C(C)C)n2)c(OC(C)C)cc1C1CCN(Cc2ccc(C3CCC(=O)NC3=O)cn2)CC1 (stereo not drawn) [GT-07600, 3-(6-((4-(4-((5-chloro-4-((2-(isopropylsulfonyl)phenyl)amino)pyrimidin-2-yl)amino)-5-isopropoxy-2-methylphenyl)piperidin-1-yl)methyl)pyridin-3-yl)piperidine-2,6-dione] |  |  |  |  |  |  | 10 to 50 nM | A (A is defined as 0% ≤ substrate protein remaining % ≤ 80%) |
